Experimental data published in patent publication US9029420B2, “Agomelatine and pharmaceutical compositions thereof” (Tianjin Taipu Pharmaceutical Science & Technology …, priority 2009, dated 2015).

Assay: pharmacological and pharmacodynamic studies
Conditions: no method or data given

COc1ccc2cccc(CCNC(C)=O)c2c1 [agomelatine crystal, N-[2-(7-methoxy-1-naphthyl)-ethyl]acetamide]
therapeutic effects for central neural system and microcirculation: good therapeutic effects for central neural system and microcirculation
